Patent publication US12264156B2, “Compounds and pharmaceutical compositions thereof for the treatment of diseases” (GALAPAGOS NV, priority 2018, dated 2025)

How the values were obtained:
[1] = test system: mouse T cell transfer model; test: T cell transfer model (mice); type: in vivo; conditions: 30 mg/kg p.o. b.i.d.
Description: DynaMag (Cat #12321D and 123203D) were obtained from Life Technologies Invitrogen (California, USA); DynabeadsFlowComp Mouse CD4+CD25-treg cells (Cat #11463D) were obtained from Life Technologies Invitrogen (California, USA), Fetal Bovine Serum (GIBCO), Cat #10270-106; RPMI (Gibco) Cat #32404-014 and D-PBS 1× without CaCl2 without MgCl2 (GIBCO), Cat #14190-086 were obtained ThermoFisher Scientific (Massachusetts, USA). Red Blood Cell (RBC) lysis buffer 10×, Cat #BLE420301 obtained from Ozyme (Montigny-le-Bretonneux, France). Cell strainer (70 μm grid), Cat #352350, obtained from Corning (New York, USA). […]
Fourteen days after cell injection, 100 μL of blood was sampled on each mouse under anesthesic conditions in order to determine CD4 level. […] Disease activity index was determined twice a week. Four to six weeks after the start of treatment, mice were sacrificed, blood was sampled and the complete colon was removed and rinsed with sterile PBS, it was measured and weighed in order to determine colon weight/length ratio. […]
There were 12 mice per group. The results were expressed as mean±SEM and statistical analysis was performed using non parametric test Kruskal-Wallis with Dunn's Multiple comparison test versus vehicle groups. […]

mouse CIA model = test: Collagen induced arthritis (CIA) model; type: in vivo; parameters: key: per paw 0 = none to 4 = maximal; sum of 4 paws, max 16
Method: Completed Freund's adjuvant (CFA) and incomplete Freund's adjuvant (IFA) were purchased from Difco. Bovine collagen type II (CII), lipopolysaccharide (LPS), and Enbrel® (etanercept) were obtained from Chondrex (L'Isle d'Abeau, France); Sigma (P4252, L'Isle d'Abeau, France), Whyet (25 mg injectable syringe, France), respectively. All other reagents used were of reagent grade and all solvents were of analytical grade.
DBA1/J mice (male, 7-8 weeks old) were obtained from Charles River Laboratories (Écully, France). Mice were kept on a 12 h light/dark cycle. Temperature was maintained at 22° C., and food and water were provided ad libitum.
One day before the experiment, CII solution (2 mg/mL) was prepared with 0.05 M acetic acid and stored at 4° C. Just before the immunization, equal volumes of adjuvant […] and CII were mixed by a homogenizer in a pre-cooled glass bottle in an ice water bath. Extra adjuvant and prolonged homogenization may be required if an emulsion is not formed. 0.2 mL of the emulsion was injected intradermally at the base of the tail of each mouse on day 1, a second booster intradermal injection (CII solution at 2 mg/mL in […]) was performed on […]. This immunization method was modified from published methods (Jou et al. 2005; Sims et al. 2004).
The therapeutic effects of the compounds were tested in the mouse CIA model. Mice were randomly divided into equal groups and each group contained 10 mice. All mice were immunized on day 1 and boosted on day 21. The negative control group was treated with vehicle (MC 0.5%) and the positive control group with Enbrel® (10 mg/kg, 3× week., sc). A compound of interest was typically tested at 3 doses per os (p.o.). At day 32, randomization between groups was performed with respect with clinical score and animals were therapeutically treated regarding their group until day 47. Body weight and clinical score, were recorded at least twice a week.
Arthritis is scored according to the method of Khachigian 2006, Lin et al 2007 and Nishida et al. 2004 (Khachigian 2006; Lin et al. 2007; Nishida et al. 2004). The swelling of each of the four paws is ranked with the arthritic score as follows: 0-no symptoms; 1-mild, but definite redness and swelling of one type of joint such as the ankle or wrist, or apparent redness and swelling limited to individual digits, regardless of the number of affected digits; 2-moderate redness and swelling of two or more types of joints; 3-severe redness and swelling of the entire paw including digits; 4-maximally inflamed limb with involvement of multiple joints (maximum cumulative clinical arthritis score 16 per animal) (Nishida et al. 2004).

COc1cc(-c2cnc3cc(OCCN4CCOCC4)ccn23)cc2c1C(=O)N(CC(F)(F)F)CC2 [Cpd 88, 8-methoxy-6-[7-(2-morpholinoethoxy)imidazo [1,2-a]pyridin-3-yl]-2-(2,2,2-trifluoroethyl)-3,4-dihydroisoquinolin-1-one]
AUC of DAI vs. vehicle group [1]: statistical significant reduction of AUC of DAI
CIA clinical score (mouse CIA model; 10 mg/kg b.i.d. p.o., day 32): 2.7
CIA clinical score (mouse CIA model; 10 mg/kg b.i.d. p.o., day 33): 3.1
CIA clinical score (mouse CIA model; 10 mg/kg b.i.d. p.o., day 35): 3.6
CIA clinical score (mouse CIA model; 10 mg/kg b.i.d. p.o., day 36): 4.1
CIA clinical score (mouse CIA model; 10 mg/kg b.i.d. p.o., day 39): 4.4
CIA clinical score (mouse CIA model; 10 mg/kg b.i.d. p.o., day 40): 4.8
CIA clinical score (mouse CIA model; 10 mg/kg b.i.d. p.o., day 41): 4.5
CIA clinical score (mouse CIA model; 10 mg/kg b.i.d. p.o., day 42): 4.9
CIA clinical score (mouse CIA model; 10 mg/kg b.i.d. p.o., day 43): 5.1
CIA clinical score (mouse CIA model; 10 mg/kg b.i.d. p.o., day 46): 8.0
CIA clinical score (mouse CIA model; 10 mg/kg b.i.d. p.o., day 47): 7.9
CIA clinical score (mouse CIA model; 30 mg/kg b.i.d. p.o., day 32): 2.7
CIA clinical score (mouse CIA model; 30 mg/kg b.i.d. p.o., day 33): 2.7
CIA clinical score (mouse CIA model; 30 mg/kg b.i.d. p.o., day 35): 3.4
CIA clinical score (mouse CIA model; 30 mg/kg b.i.d. p.o., day 36): 3.8
CIA clinical score (mouse CIA model; 30 mg/kg b.i.d. p.o., day 39): 4.5
CIA clinical score (mouse CIA model; 30 mg/kg b.i.d. p.o., day 40): 4.7
CIA clinical score (mouse CIA model; 30 mg/kg b.i.d. p.o., day 41): 4.7
CIA clinical score (mouse CIA model; 30 mg/kg b.i.d. p.o., day 42): 5.2
CIA clinical score (mouse CIA model; 30 mg/kg b.i.d. p.o., day 43): 4.6
CIA clinical score (mouse CIA model; 30 mg/kg b.i.d. p.o., day 46): 6.1
CIA clinical score (mouse CIA model; 30 mg/kg b.i.d. p.o., day 47): 5.4
CIA clinical score (mouse CIA model; 60 mg/kg b.i.d. p.o., day 32): 2.7
CIA clinical score (mouse CIA model; 60 mg/kg b.i.d. p.o., day 33): 2.7
CIA clinical score (mouse CIA model; 60 mg/kg b.i.d. p.o., day 35): 3.1
CIA clinical score (mouse CIA model; 60 mg/kg b.i.d. p.o., day 36): 2.8
CIA clinical score (mouse CIA model; 60 mg/kg b.i.d. p.o., day 39): 3.3
CIA clinical score (mouse CIA model; 60 mg/kg b.i.d. p.o., day 40): 3.0
CIA clinical score (mouse CIA model; 60 mg/kg b.i.d. p.o., day 41): 2.7
CIA clinical score (mouse CIA model; 60 mg/kg b.i.d. p.o., day 42): 2.8
CIA clinical score (mouse CIA model; 60 mg/kg b.i.d. p.o., day 43): 2.3
CIA clinical score (mouse CIA model; 60 mg/kg b.i.d. p.o., day 46): 2.8
CIA clinical score (mouse CIA model; 60 mg/kg b.i.d. p.o., day 47): 2.5
